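Briefly, cells in 96-well plates were exposed to five compound concentrations for 48 h, and endpoints were estimated by linear interpolation. The concentration for 50% growth inhibition is given as GI50.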 Active and inactive are the calls of the source. Rule as the data show it: active = GI50 up to about 1.1 µM and inactive = higher.
Experiments:
Assay in all cases: NCI anticancer screen, dose series, 48 h
786-0 = test system: 786-0
A498 = test system: A498
A549 = test system: A549
ACHN = test system: ACHN
CAKI-1 = test system: CAKI-1
CCRF-CEM = test system: CCRF-CEM
COLO 205 = test system: COLO 205
DLD-1 = test system: DLD-1
DMS-114 = test system: DMS-114
DMS-273 = test system: DMS-273
EKVX = test system: EKVX
HCC 2998 = test system: HCC 2998
HCT-15 = test system: HCT-15
HL-60 = test system: HL-60
HOP-18 = test system: HOP-18
HOP-62 = test system: HOP-62
HOP-92 = test system: HOP-92
HT-29 = test system: HT-29
IGROV-1 = test system: IGROV-1
K562 = test system: K562
KM-20L2 = test system: KM-20L2
KM12 = test system: KM12
LOX IMVI = test system: LOX IMVI
LXFL 529 = test system: LXFL 529
M14 = test system: M14
M19-MEL = test system: M19-MEL
MOLT-4 = test system: MOLT-4
Malme-3M = test system: Malme-3M
NCI-H226 = test system: NCI-H226
NCI-H23 = test system: NCI-H23
NCI-H522 = test system: NCI-H522
OVCAR-3 = test system: OVCAR-3
OVCAR-4 = test system: OVCAR-4
OVCAR-5 = test system: OVCAR-5
OVCAR-8 = test system: OVCAR-8
RPMI-8226 = test system: RPMI-8226
SF-268 = test system: SF-268
SF-295 = test system: SF-295
SF-539 = test system: SF-539
SK-MEL-5 = test system: SK-MEL-5
SK-OV-3 = test system: SK-OV-3
SN12C = test system: SN12C
SNB-19 = test system: SNB-19
SNB-78 = test system: SNB-78
SW-620 = test system: SW-620
TK-10 = test system: TK-10
U-251 = test system: U-251
UACC-257 = test system: UACC-257
UACC-62 = test system: UACC-62
UO-31 = test system: UO-31
XF498 = test system: XF498
HCT-116 = test system: HCT-116
NCI-H460 = test system: NCI-H460
RXF 393 = test system: RXF 393
SK-MEL-28 = test system: SK-MEL-28
SK-MEL-2 = test system: SK-MEL-2
SNB-75 = test system: SNB-75
SR = test system: SR
MCF7 = test system: MCF7
NCI/ADR-RES = test system: NCI/ADR-RES

Measured: GI50

COc1ccc(C(c2ccccc2C(=O)O)c2ccc(OC)c3ccccc23)c2ccccc12
inactive: 786-0 15.8 µM | A498 16.2 µM | A549 7.48 µM | ACHN 10.4 µM | CAKI-1 28.8 µM | CCRF-CEM 8.79 µM | COLO 205 13 µM | DLD-1 7.31 µM | DMS-114 7.06 µM | DMS-273 14 µM | EKVX 20.2 µM | HCC 2998 6.49 µM | HL-60 7.33 µM | HOP-18 3.39 µM | HOP-62 15.5 µM | HOP-92 33.5 µM | HT-29 11.9 µM | IGROV-1 11.3 µM | K562 5.2 µM | KM-20L2 9.25 µM | KM12 8.15 µM | LOX IMVI 18 µM | LXFL 529 6.35 µM | M14 16.2 µM | M19-MEL 12.5 µM | MOLT-4 5.62 µM | Malme-3M 13.3 µM | NCI-H226 20 µM | NCI-H23 > 10 µM | NCI-H522 12.6 µM | OVCAR-3 13.5 µM | OVCAR-4 10.7 µM | OVCAR-5 15.1 µM | OVCAR-8 10.5 µM | RPMI-8226 3.61 µM | SF-268 > 10 µM | SF-295 11.1 µM | SF-539 12 µM | SK-MEL-5 15.9 µM | SK-OV-3 23.6 µM | SN12C 10.9 µM | SNB-19 11.2 µM | SNB-78 20.9 µM | SW-620 14.8 µM | TK-10 19.9 µM | U-251 7.83 µM | UACC-257 4.85 µM | UACC-62 4.71 µM | UO-31 4.9 µM | XF498 20.9 µM
8.63 µM: HCT-15

Cc1cc2c(C)n[nH]c2c(C(=O)O)c1C
inactive: 786-0 > 100 µM | A498 > 100 µM | A549 > 100 µM | ACHN > 100 µM | CAKI-1 > 100 µM | CCRF-CEM > 100 µM | COLO 205 > 100 µM | DLD-1 > 100 µM | DMS-114 > 100 µM | DMS-273 > 100 µM | EKVX > 100 µM | HCC 2998 > 100 µM | HCT-116 > 100 µM | HL-60 > 100 µM | HOP-62 > 100 µM | HT-29 > 100 µM | IGROV-1 > 100 µM | K562 > 100 µM | KM-20L2 > 100 µM | KM12 > 100 µM | LXFL 529 > 100 µM | M19-MEL > 100 µM | MOLT-4 > 100 µM | NCI-H23 85.7 µM | NCI-H460 > 100 µM | OVCAR-3 > 100 µM | OVCAR-4 51.6 µM | OVCAR-8 > 100 µM | RPMI-8226 > 100 µM | RXF 393 > 100 µM | SF-295 > 100 µM | SF-539 > 100 µM | SK-MEL-28 > 100 µM | SK-MEL-2 > 100 µM | SN12C > 100 µM | SNB-19 > 100 µM | SNB-75 > 100 µM | SNB-78 36.2 µM | SR > 100 µM | SW-620 > 100 µM | U-251 > 100 µM | UACC-257 > 100 µM | UACC-62 > 100 µM | UO-31 85.5 µM | XF498 > 100 µM
active: HOP-92 < 0.01 µM
> 100 µM: HCT-15

O=C(/C=C/c1ccccc1)NC1C=Nc2ccc([N+](=O)[O-])cc2NC1=O (centres undefined)
inactive: 786-0 > 100 µM | A498 > 100 µM | A549 > 100 µM | ACHN 26.2 µM | CAKI-1 > 100 µM | CCRF-CEM 17.4 µM | COLO 205 29 µM | DLD-1 > 100 µM | DMS-114 15.8 µM | DMS-273 21.6 µM | EKVX > 100 µM | HCC 2998 34.8 µM | HCT-116 96.6 µM | HL-60 25.3 µM | HOP-62 84.3 µM | HOP-92 > 100 µM | HT-29 73.1 µM | IGROV-1 > 100 µM | K562 27 µM | KM-20L2 23.3 µM | KM12 18.1 µM | LOX IMVI 22.7 µM | LXFL 529 34.7 µM | M14 52.8 µM | M19-MEL 38.4 µM | MOLT-4 53.8 µM | Malme-3M > 100 µM | NCI-H226 > 100 µM | NCI-H23 76.4 µM | NCI-H460 > 100 µM | NCI-H522 6.01 µM | OVCAR-3 80.5 µM | OVCAR-4 > 100 µM | OVCAR-5 71.9 µM | OVCAR-8 > 100 µM | RXF 393 > 100 µM | SF-268 > 100 µM | SF-295 30.3 µM | SF-539 > 100 µM | SK-MEL-28 > 100 µM | SK-MEL-2 25.7 µM | SK-MEL-5 > 100 µM | SK-OV-3 > 100 µM | SN12C > 100 µM | SNB-19 > 100 µM | SNB-75 > 100 µM | SNB-78 > 100 µM | SR > 100 µM | SW-620 > 100 µM | TK-10 > 100 µM | U-251 > 100 µM | UACC-257 > 100 µM | UACC-62 44.1 µM | UO-31 48.9 µM | XF498 > 100 µM
23.2 µM: HCT-15

COc1cc2c(cc1O)N=C[C@@H]1CC[C@@H](O)N1C2=O.COc1cc2c(cc1O)N=C[C@@H]1CC[C@H](O)N1C2=O
active: A498 0.43 µM | CAKI-1 0.607 µM | CCRF-CEM 0.369 µM | COLO 205 0.738 µM | DLD-1 1 µM | DMS-114 0.522 µM | HCC 2998 0.863 µM | HL-60 0.897 µM | HOP-18 0.863 µM | HOP-62 0.631 µM | HOP-92 0.752 µM | K562 0.849 µM | LOX IMVI 0.473 µM | MCF7 0.946 µM | MOLT-4 0.615 µM | Malme-3M 0.597 µM | NCI-H226 0.525 µM | NCI-H23 0.916 µM | NCI-H522 0.159 µM | NCI/ADR-RES 0.855 µM | OVCAR-3 0.561 µM | OVCAR-8 1.05 µM | RPMI-8226 0.527 µM | RXF 393 0.281 µM | SF-268 0.735 µM | SF-295 0.984 µM | SF-539 0.726 µM | SK-MEL-28 0.977 µM | SK-MEL-2 0.433 µM | SK-MEL-5 0.583 µM | SN12C 1.04 µM | SNB-75 1.02 µM | SNB-78 0.631 µM | SW-620 0.652 µM | U-251 0.635 µM | UACC-62 0.627 µM | UO-31 0.579 µM | XF498 0.48 µM
inactive: A549 5.6 µM | DMS-273 5.48 µM | EKVX 1.87 µM | HCT-116 1.32 µM | HT-29 2.17 µM | IGROV-1 1.83 µM | KM-20L2 1.72 µM | KM12 1.38 µM | M19-MEL 1.2 µM | NCI-H460 2.54 µM | OVCAR-4 3.55 µM | OVCAR-5 2.99 µM | SK-OV-3 4.41 µM | SNB-19 1.4 µM | UACC-257 1.6 µM
0.74 µM: HCT-15

O=C(CC1(O)C(=O)Nc2ccccc21)c1ccccc1Cl (centres undefined)
inactive: 786-0 > 100 µM | A498 > 100 µM | A549 > 100 µM | ACHN > 100 µM | CAKI-1 > 100 µM | COLO 205 > 100 µM | DLD-1 > 100 µM | DMS-114 > 100 µM | DMS-273 > 100 µM | EKVX > 100 µM | HCT-116 > 100 µM | HL-60 > 100 µM | HOP-92 > 100 µM | HT-29 > 100 µM | IGROV-1 > 100 µM | K562 > 100 µM | KM-20L2 > 100 µM | LOX IMVI > 100 µM | LXFL 529 > 100 µM | M14 > 100 µM | M19-MEL > 100 µM | MOLT-4 > 100 µM | Malme-3M > 100 µM | NCI-H226 > 100 µM | NCI-H23 > 100 µM | NCI-H460 > 100 µM | NCI-H522 76.6 µM | OVCAR-3 > 100 µM | OVCAR-4 > 100 µM | OVCAR-5 > 100 µM | OVCAR-8 > 100 µM | RPMI-8226 > 100 µM | RXF 393 > 100 µM | SF-268 > 100 µM | SF-295 > 100 µM | SF-539 > 100 µM | SK-MEL-28 > 100 µM | SK-MEL-2 > 100 µM | SK-MEL-5 > 100 µM | SK-OV-3 > 100 µM | SN12C > 100 µM | SNB-19 > 100 µM | SNB-75 > 100 µM | SNB-78 > 100 µM | SW-620 > 100 µM | TK-10 > 100 µM | UACC-257 > 100 µM | UACC-62 > 100 µM | UO-31 64.9 µM | XF498 > 100 µM
> 100 µM: HCT-15
